From patent US12018011B2, “Macrocyclic compounds and compositions, and methods of preparing and using the same” (Kura Oncology, Inc., priority 2021, dated 2024)

Molecular target: T1, Recombinant human farnesyl transferase (FTase) (Homo sapiens, UniProt P49356)
T1 construct: purchased Crelux (Martinsried, Germany)
Test: FTase fluorescence assay (farnesylation of dansyl-GCVLS peptide)
Type: biochemical
Settings: recombinant human FTase 2.5 nM, Dansyl-GCVLS 85 nM, FPP 30 nM, 30° C., 50 minutes
Description: T24/83 cell line was purchased from the European Collection of Authenticated Cell Cultures (Salisbury, UK). Recombinant human farnesyl transferase (FTase) and geranylgeranyl transferase type-1 (GGTase) were obtained from Crelux (Martinsried, Germany). Dansyl labelled GCVLS peptide was purchased from Bachem (Torrance, CA), and Dansyl labelled GCVLL peptide was purchased from Bio Synthesis (Lewisville, TX). Farnesyl Pyrophosphate (FPP) and Geranylgeranyl pyrophosphate (GGPP) were purchased from Cayman (Ann Arbor, MI).
Specific biochemical activity of the compounds disclosed herein as FTase inhibitors was determined by measuring the ability of the compounds to block the farnesylation by recombinant FTase of fluorescent (i.e., dansyl-labeled) test substrates derived from the CAAX box of farnesylated proteins, such as the peptide GCVLS.
The IC50 value of the compounds disclosed herein as inhibitors of Ftase and/or GGTase, was determined by measuring the concentration (provided in nM) necessary to achieve inhibition of enzyme activity by 50% (IC50). […] Compounds having a low IC50 value against FTase, for example an IC50 (FTase)<100 nM, such as an IC50 (FTase)<10 nM, are preferred. Compounds having a low IC50 value against FTase and a high IC50 value against GGTase, for example an IC50 (FTase)<100 nM, such as an IC50 (FTase)<10 nM, and an IC50 (GGTase)>100 nM, are potent and selective inhibitors of FTase, and are particularly preferred.
The inhibition activities of the compounds disclosed herein against Ftase and GGTase were measured in the respective fluorescence assays as follows:
For the FTase assay, recombinant human FTase (2.5 nM), Dansyl labelled GCVLS peptide (85 nM), FPP (30 nM) and inhibitor were mixed in assay buffer (50 mM Tris, pH 7.5, 10 mM magnesium chloride, 10 μM zinc chloride, 0.08% CHAPS, 5 mM dithiothreitol) and incubated in a total volume of 20 μL at 30° C. for 50 minutes.
For both the FTase assay and GGTase assay, fluorescence intensity was detected (excitation at 340 nm and emission at 486 nm) using EnVision (PerkinElmer; Waltham, MA), IC50 determinations were performed using a sigmoidal dose-response model with Xlfit software (IDBS, Inc.; Boston, MA), and tipifarnib was used as a positive control. All the assay plates for each assay passed the QC criteria (S/B, Z factor).

Row | Structure (SMILES) | IC50 [nM]
1 | Cn1cnnc1C1(O)c2ccc(Cl)c(c2)OCCc2cccc(c2)-c2cc(=O)[nH]c3ccc1cc23 (centres unmarked) [Compound 31, 4^4-chloro-3-hydroxy-3-(4-methyl-4H-1,2,4-triazol-3-yl)-2^1,2^2-dihydro-5-oxa-2(4,6)-quinolina-1,4(1,3)-dibenzenacycloheptaphan-2^2-one] | 10 to 100
2 | [2H]C([2H])([2H])n1c(=O)cc2c3cc(ccc31)C(O)(c1nncn1C)c1ccc(Cl)c(c1)OCCc1cccc-2c1 (centres unmarked) [Compound 32, 4^4-chloro-3-hydroxy-2^1-(methyl-d3)-3-(4-methyl-4H-1,2,4-triazol-3-yl)-2^1,2^2-dihydro-5-oxa-2(4,6)-quinolina-1,4(1,3)-dibenzenacycloheptaphan-2^2-one] | 10 to 100
3 | Cn1cncc1C1(O)c2cccc(c2)CCc2cccc(c2)-c2cc(=O)[nH]c3ccc1cc23 (centres unmarked) [Compound 1, 3-hydroxy-3-(1-methyl-1H-imidazol-5-yl)-2^1,2^2-dihydro-2(4,6)-quinolina-1,4(1,3)-dibenzenacyclohexaphan-2^2-one] | 10 to 100
4 | [2H]C([2H])([2H])n1c(=O)cc2c3cc(ccc31)[C@H](n1cnc(C)c1)c1ccc(Cl)c(c1)COc1cccc-2c1 [(S)-77, (S)-4^4-chloro-2^1-(methyl-d3)-3-(4-methyl-1H-imidazol-1-yl)-2^1,2^2-dihydro-6-oxa-2(4,6)-quinolina-1,4(1,3)-dibenzenacyclohexaphan-2^2-one] | 10 to 100
5 | Cn1cncc1[C@]1(N)c2ccc(Cl)c(c2)COc2cccc(c2)-c2cc(C#N)nc3ccc1cc23 (racemic) [(R)-48, (R)-3-amino-4^4-chloro-3-(1-methyl-1H-imidazol-5-yl)-6-oxa-2(4,6)-quinolina-1,4(1,3)-dibenzenacyclohexaphane-2^2-carbonitrile] | 10 to 100
6 | Cc1cn([C@H]2c3ccc(C#N)c(c3)COc3cccc(c3)-c3cc(C#N)nc4ccc2cc34)cn1 [(R)-90, (R)-3-(4-methyl-1H-imidazol-1-yl)-6-oxa-2(4,6)-quinolina-1,4(1,3)-dibenzenacyclohexaphane-2^2,4^4-dicarbonitrile] | 10 to 100
7 | [2H]C([2H])([2H])n1c(=O)cc2c3cc(ccc31)[C@](N)(c1nncn1C)c1ccc(Cl)c(c1)OCCc1cccc-2c1 (racemic) [(R)-34, (R)-3-amino-4^4-chloro-2^1-(methyl-d3)-3-(4-methyl-4H-1,2,4-triazol-3-yl)-2^1,2^2_ dihydro-5-oxa-2(4,6)-quinolina-1,4(1,3)-dibenzenacycloheptaphan-2^2-one] | > 100
8 | Cn1cncc1[C@]1(N)c2ccc(C#N)c(c2)COc2cccc(c2)-c2cc(=O)n(C3CC3)c3ccc1cc23 (racemic) [(R)-57, (R)-3-amino-21-cyclopropyl-3-(1-methyl-1H-imidazol-5-yl)-2^2-oxo-2^1,2^2-dihydro-6-oxa-2(4,6)-quinolina-1,4(1,3)-dibenzenacyclohexaphane-4^4-carbonitrile] | > 100
9 | [2H]C([2H])([2H])n1cncc1[C@]1(O)c2ccc(C#N)c(c2)COc2cccc(c2)-c2cc(C#N)nc3ccc1cc23 [(R)-078, (R)-3-hydroxy-3-(1-(methyl-d3)-1H-imidazol-5-yl)-6-oxa-2(4,6)-quinolina-1,4(1,3)-dibenzenacyclohexaphane-2^2 4^4-dicarbonitrile] | 10 to 100
10 | COc1cc2c3cc(cnc3c1)C(O)(c1cncn1C)c1ccc(Br)c(c1)COc1cccc-2c1 (centres unmarked) [Compound 87, 4^4-bromo-2^7-methoxy-3-(1-methyl-1H-imidazol-5-yl)-6-oxa-2(5,3)-quinolina-1,4(1,3)-dibenzenacyclohexaphan-3-ol] | > 100
11 | Cn1cncc1[C@]1(N)c2ccc(C#N)c(c2)CCc2cccc(c2)-c2cc(=O)n(C)c3ccc1cc23 (racemic) [(S)-7, (S)-3-amino-2^1-methyl-3-(1-methyl-1H-imidazol-5-yl)-22-oxo-2^1,2^2-dihydro-2(4,6)-quinolina-1,4(1,3)-dibenzenacyclohexaphane-4^4-carbonitrile] | > 100
12 | Cn1cncc1C1(O)c2ccc(C#N)c(c2)OCc2cccc(c2)-c2cc(=O)[nH]c3ccc1cc23 (centres unmarked) [Compound 17, 3-hydroxy-3-(1-methyl-1H-imidazol-5-yl)-2^2-oxo-2^1,2^2-dihydro-5-oxa-2(4,6)-quinolina-1,4(1,3)-dibenzenacyclohexaphane-4^4-carbonitrile] | ≤ 10
13 | Cn1cncc1[C@]1(N)c2ccc(C#N)c(c2)CCc2cccc(c2)-c2cc(C#N)nc3ccc1cc23 (racemic) [(S)-9, (S)-3-amino-3-(1-methyl-1H-imidazol-5-yl)-2(4,6)-quinolina-1,4(1,3)-dibenzenacyclohexaphane-2^2,4^4-dicarbonitrile] | > 100

The remaining lines, values ahead:

Row | IC50 [nM] | Structure (SMILES)
14 | ≤ 10 | Cn1cnnc1C1(O)c2ccc(C#N)c(c2)OCCc2cccc(c2)-c2cc(=O)n(C)c3ccc1cc23 (centres unmarked) [Compound 38, 3-hydroxy-2^1-methyl-3-(4-methyl-4H-1,2,4-triazol-3-yl)-2^2-oxo-2^1,2^2-dihydro-5-oxa-2(4,6)-quinolina-1,4(1,3)-dibenzenacycloheptaphane-4^4-carbonitrile]
15 | > 100 | COc1cc2c3cc(ccc3n1)C(O)(c1cncn1C)c1ccc(Cl)c(c1)OCc1cccc-2c1 (centres unmarked) [Compound 12, 4^4-chloro-2^2-methoxy-3-(1-methyl-1H-imidazol-5-yl)-5-oxa-2(4,6)-quinolina-1,4(1,3)-dibenzenacyclohexaphan-3-ol]
16 | 10 to 100 | [2H]C([2H])([2H])OC1(c2nncn2C)c2ccc(Cl)c(c2)OCCc2cccc(c2)-c2cc(=O)n(C([2H])([2H])[2H])c3ccc1cc23 (centres unmarked) [Compound 33, 4^4-chloro-3-(methoxy-d3)-2^1-(methyl-d3)-3-(4-methyl-4H-1,2,4-triazol-3-yl)-2^1,2^2-dihydro-5-oxa-2(4,6)-quinolina-1,4(1,3)-dibenzenacycloheptaphan-2^2-one]
17 | > 100 | Cn1cncc1[C@]1(N)c2ccc(Cl)c(c2)OCCc2cccc(c2)-c2cc(=O)n(C)c3ccc1cc23 (racemic) [(R)-27, (R)-3-amino-4^4-chloro-2^1-methyl-3-(1-methyl-1H-imidazol-5-yl)-2^1,2^2-dihydro-5-oxa-2(4,6)-quinolina-1,4(1,3)-dibenzenacycloheptaphan-2^2-one]
18 | 10 to 100 | Cn1cncc1C1(O)c2cccc(c2)CCOc2cccc(c2)-c2cc(=O)n(C)c3ccc1cc23 (centres unmarked) [Compound 63, 3-hydroxy-2^1-methyl-3-(1-methyl-1H-imidazol-5-yl)-2^1,2^2-dihydro-7-oxa-2(4,6)-quinolina-1,4(1,3)-dibenzenacycloheptaphan-2^2-one]
19 | ≤ 10 | [2H]C([2H])([2H])n1cncc1[C@@]1(O)c2ccc(C#N)c(c2)COc2cccc(c2)-c2cc(C#N)nc3ccc1cc23 [(S)-078, (S)-3-hydroxy-3-(1-(methyl-d3)-1H-imidazol-5-yl)-6-oxa-2(4,6)-quinolina-1,4(1,3)-dibenzenacyclohexaphane-2^2 4^4-dicarbonitrile]
20 | > 100 | [2H]C([2H])([2H])n1c(=O)cc2c3cc(ccc31)[C@](O)(c1cncn1C)c1ccc(C#N)c(c1)COc1cccc-2c1 (racemic) [(R)-55, (R)-3-hydroxy-21-(methyl-d3)-3-(1-methyl-1H-imidazol-5-yl)-2^2-oxo-2^1,2^2-dihydro-6-oxa-2(4,6)-quinolina-1,4(1,3)-dibenzenacyclohexaphane-4^4-carbonitrile]
